The values that follow come from ChEMBL document CHEMBL3045272, “Synthesis and fungicidal activities of novel bis(trifluoromethyl)phenyl-based strobilurins” (J Agric Food Chem, 2008).

The structures appear in SMILES notation. Values after ≈ are worked out from the molar mass of the structure shown.

Assay [1] concerns Blumeria graminis. The assay can be described thus: Fungicidal activity against Blumeria graminis infected compound pre-treated wheat plants assessed as disease preventive activity at 6.25 mg/L measured after 1 or 2 weeks. The assay is classed as functional.
Assay [2] relates to Podosphaera fuliginea. In words: Fungicidal activity against Podosphaera fuliginea infected cucumber plants exposed to compound treatment 1 day post infection assessed as disease curative activity at 6.25 mg/L measured after 1 or 2 weeks. The assay is classed as functional.
In assay [3] the test system is Podosphaera fuliginea. In words: Fungicidal activity against Podosphaera fuliginea infected compound pre-treated cucumber plants assessed as disease preventive activity at measured after 1 or 2 weeks. The assay is classed as functional, organism-based.
The subject of assay [4] is Podosphaera fuliginea. In words: Fungicidal activity against Podosphaera fuliginea infected cucumber plants exposed to compound treatment 1 day post infection assessed as disease curative activity at 3.12 mg/L measured after 1 or 2 weeks. It is filed as functional.
Assay [5] has as its system Blumeria graminis. The assay can be described thus: Fungicidal activity against Blumeria graminis infected compound pre-treated wheat plants assessed as disease preventive activity at 500 ppm measured after 1 or 2 weeks. The assay is classed as functional.
Assay [6] relates to Podosphaera fuliginea. In words: Fungicidal activity against Podosphaera fuliginea infected compound pre-treated cucumber plants assessed as disease preventive activity at 3.12 mg/L measured after 1 or 2 weeks. It is filed as functional.
Assay [7] relates to Blumeria graminis. In words: Fungicidal activity against Blumeria graminis infected wheat plants exposed to compound treatment 1 day post infection assessed as disease curative activity measured after 1 or 2 weeks. It is filed as functional, organism-based.
Assay [8] has as its system Blumeria graminis. In words: Fungicidal activity against Blumeria graminis infected compound pre-treated wheat plants assessed as disease preventive activity measured after 1 or 2 weeks. The assay is classed as functional, organism-based.
Assay [9] deals with Podosphaera fuliginea. The assay can be described thus: Fungicidal activity against Podosphaera fuliginea infected cucumber plants exposed to compound treatment 1 day post infection assessed as disease curative activity at 0.78 mg/L measured after 1 or 2 weeks. The assay is classed as functional.
Assay [10] has as its system Podosphaera fuliginea. In words: Fungicidal activity against Podosphaera fuliginea infected cucumber plants exposed to compound treatment 1 day post infection assessed as disease curative activity at 1.56 mg/L measured after 1 or 2 weeks. The assay is classed as functional.
In assay [11] the test system is Podosphaera fuliginea. The assay can be described thus: Fungicidal activity against Podosphaera fuliginea infected compound pre-treated cucumber plants assessed as disease preventive activity at 0.78 mg/L measured after 1 or 2 weeks. It is filed as functional.
Assay [12] relates to Podosphaera fuliginea. In words: Fungicidal activity against Podosphaera fuliginea infected cucumber plants exposed to compound treatment 1 day post infection assessed as disease curative activity measured after 1 or 2 weeks. The assay is classed as functional, organism-based.
For assay [13], the system named is Blumeria graminis. The assay can be described thus: Fungicidal activity against Blumeria graminis infected compound pre-treated wheat plants assessed as disease preventive activity at 1.5 ppm measured after 1 or 2 weeks. The assay is classed as functional.
Assay [14] deals with Blumeria graminis. The assay can be described thus: Fungicidal activity against Blumeria graminis infected compound pre-treated wheat plants assessed as disease preventive activity at 3.12 mg/L measured after 1 or 2 weeks. It is filed as functional.
The subject of assay [15] is Blumeria graminis. In words: Fungicidal activity against Blumeria graminis infected wheat plants exposed to compound treatment 1 day post infection assessed as disease curative activity at 0.78 mg/L measured after 1 or 2 weeks. It is filed as functional.
Assay [16] has as its system Podosphaera fuliginea. The assay can be described thus: Fungicidal activity against Podosphaera fuliginea infected compound pre-treated cucumber plants assessed as disease preventive activity at 1.56 mg/L measured after 1 or 2 weeks. The assay is classed as functional.
Assay [17] concerns Podosphaera fuliginea. In words: Fungicidal activity against Podosphaera fuliginea infected compound pre-treated cucumber plants assessed as disease preventive activity at 6.25 mg/L measured after 1 or 2 weeks. The assay is classed as functional.
The test system of assay [18] is Blumeria graminis. The assay can be described thus: Fungicidal activity against Blumeria graminis infected compound pre-treated wheat plants assessed as disease preventive activity at 6.2 ppm measured after 1 or 2 weeks. The assay is classed as functional.
Assay [19] concerns Blumeria graminis. In words: Fungicidal activity against Blumeria graminis infected wheat plants exposed to compound treatment 1 day post infection assessed as disease curative activity at 3.12 mg/L measured after 1 or 2 weeks. The assay is classed as functional.
For assay [20], the system named is Blumeria graminis. The assay can be described thus: Fungicidal activity against Blumeria graminis infected compound pre-treated wheat plants assessed as disease preventive activity at 100 ppm measured after 1 or 2 weeks. The assay is classed as functional.
For assay [21], the system named is Blumeria graminis. The assay can be described thus: Fungicidal activity against Blumeria graminis infected wheat plants exposed to compound treatment 1 day post infection assessed as disease curative activity at 6.25 mg/L measured after 1 or 2 weeks. The assay is classed as functional.
Assay [22] concerns Blumeria graminis. The assay can be described thus: Fungicidal activity against Blumeria graminis infected wheat plants exposed to compound treatment 1 day post infection assessed as disease curative activity at 1.56 mg/L measured after 1 or 2 weeks. The assay is classed as functional.
The test system of assay [23] is Blumeria graminis. The assay can be described thus: Fungicidal activity against Blumeria graminis infected compound pre-treated wheat plants assessed as disease preventive activity at 0.78 mg/L measured after 1 or 2 weeks. The assay is classed as functional.
Assay [24] relates to Blumeria graminis. In words: Fungicidal activity against Blumeria graminis infected compound pre-treated wheat plants assessed as disease preventive activity at 1.56 mg/L measured after 1 or 2 weeks. It is filed as functional.
For assay [25], the system named is Blumeria graminis. The assay can be described thus: Fungicidal activity against Blumeria graminis infected compound pre-treated wheat plants assessed as disease preventive activity at 3.1 ppm measured after 1 or 2 weeks. It is filed as functional.

In general, EC50 refers to the concentration needed to bring the measured effect to its halfway point. In general, EC90 refers to the concentration needed for an effect of 90%. With `CO/N=C(/C1=NOCCO1)c1ccccc1CO/N=C(\OC)c1cc(C(F)(F)F)cc(C(F)(F)F)c1`, the Activity in the assay with Blumeria graminis [1] is listed as 100%; in the assay on Podosphaera fuliginea [2], 100%; in the assay on Podosphaera fuliginea [4], 100%; with Blumeria graminis [5], 100%; in the assay with Podosphaera fuliginea [6], 100%; in the assay on Podosphaera fuliginea [9], 60%. For the same compound, the Activity was 80% with Podosphaera fuliginea [10]; 55% in the assay on Podosphaera fuliginea [11]; 95% in the assay on Blumeria graminis [13]; 98% with Blumeria graminis [14]; 35% with Blumeria graminis [15]; 75% in the assay with Podosphaera fuliginea [16]. Moreover, the Activity stood at 100% in the assay on Podosphaera fuliginea [17]; 100% with Blumeria graminis [18]; 90% with Blumeria graminis [19]; 100% with Blumeria graminis [20]; 100% in the assay with Blumeria graminis [21]; 70% in the assay with Blumeria graminis [22]. Moreover, the Activity with Blumeria graminis [23] came to 30%; in the assay on Blumeria graminis [24], 75%; in the assay on Blumeria graminis [25] it was 96%. The concentration giving a half-maximal response (EC50) turned out to be 0.8 µg/mL (≈ 1.54 µM) in the assay on Podosphaera fuliginea [3], 1 µg/mL (≈ 1.93 µM) in the assay with Blumeria graminis [7], 0.9 µg/mL (≈ 1.73 µM) in the assay on Blumeria graminis [8] and 0.8 µg/mL (≈ 1.54 µM) in the assay on Podosphaera fuliginea [12]. Moreover, the EC90 stood at 1.6 µg/mL (≈ 3.08 µM) in the assay with Podosphaera fuliginea [3], 2.4 µg/mL (≈ 4.62 µM) in the assay on Blumeria graminis [7], 2 µg/mL (≈ 3.85 µM) in the assay with Blumeria graminis [8] and 1.5 µg/mL (≈ 2.89 µM) in the assay on Podosphaera fuliginea [12].
As for `CO/N=C(/C(=O)OC)c1ccccc1CO/N=C(\OC)c1cc(C(F)(F)F)cc(C(F)(F)F)c1`, the Activity in the assay on Blumeria graminis [5] was 100%; in the assay with Blumeria graminis [13], 80%; in the assay with Blumeria graminis [18] it was 100%; in the assay on Blumeria graminis [20], 100%; with Blumeria graminis [25], 98%.
Turning to `COC(=O)N(OC)c1ccccc1CO/N=C(\OC)c1cc(C(F)(F)F)cc(C(F)(F)F)c1`, the Activity with Blumeria graminis [5] is 100%; with Blumeria graminis [13], 10%; with Blumeria graminis [18] it was 80%; with Blumeria graminis [20], 100%; in the assay with Blumeria graminis [25] it was 60%.
As to `CO/C=C(/C(=O)OC)c1ccccc1CO/N=C(\SC)c1cc(C(F)(F)F)cc(C(F)(F)F)c1`, the Activity with Blumeria graminis [5] is 100%; with Blumeria graminis [13] it was 75%; in the assay on Blumeria graminis [18] it was 98%; in the assay with Blumeria graminis [20], 100%; in the assay on Blumeria graminis [25] it was 93%.
As to `CO/C=C(/C(=O)OC)c1ccccc1CO/N=C(\OC)c1cc(C(F)(F)F)cc(C(F)(F)F)c1`, the Activity is 100% in the assay with Blumeria graminis [1]; 100% with Podosphaera fuliginea [2]; 100% with Podosphaera fuliginea [4]; 100% with Blumeria graminis [5]; 100% in the assay on Podosphaera fuliginea [6]; 56% with Podosphaera fuliginea [9]. The Activity with Podosphaera fuliginea [10] is 92%; in the assay on Podosphaera fuliginea [11] it was 59%; in the assay with Blumeria graminis [13], 98%; in the assay on Blumeria graminis [14], 81%; with Blumeria graminis [15], 20%; in the assay with Podosphaera fuliginea [16], 80%. Moreover, the Activity with Podosphaera fuliginea [17] came to 100%; with Blumeria graminis [18], 100%; in the assay with Blumeria graminis [19] it was 82%; in the assay on Blumeria graminis [20], 100%; in the assay with Blumeria graminis [21], 94%; in the assay with Blumeria graminis [22], 50%. Further, the Activity with Blumeria graminis [23] is recorded as 20%; in the assay on Blumeria graminis [24], 60%; in the assay with Blumeria graminis [25] it was 100%. Moreover, the EC50 with Podosphaera fuliginea [3] amounted to 0.8 µg/mL (≈ 1.63 µM); with Blumeria graminis [7] it was 1.5 µg/mL (≈ 3.05 µM); in the assay with Blumeria graminis [8] it was 1.2 µg/mL (≈ 2.44 µM); in the assay with Podosphaera fuliginea [12], 0.8 µg/mL (≈ 1.63 µM). Also, the EC90 with Podosphaera fuliginea [3] was found to be 1.5 µg/mL (≈ 3.05 µM); with Blumeria graminis [7] it was 4.8 µg/mL (≈ 9.77 µM); with Blumeria graminis [8] it was 2.8 µg/mL (≈ 5.7 µM); in the assay on Podosphaera fuliginea [12], 1.4 µg/mL (≈ 2.85 µM).
In the case of `CO/C=C(/C(=O)OC)c1ccccc1Oc1cc(Oc2ccccc2C#N)ncn1` [AZOXYSTROBIN], the Activity in the assay on Blumeria graminis [1] worked out at 90%; in the assay with Podosphaera fuliginea [2], 100%; in the assay with Podosphaera fuliginea [4], 90%; in the assay on Blumeria graminis [5] it was 100%; with Podosphaera fuliginea [6] it was 80%; with Podosphaera fuliginea [9] it was 55%. For the same compound, the Activity was 80% with Podosphaera fuliginea [10]; 35% with Podosphaera fuliginea [11]; 62% with Blumeria graminis [13]; 65% in the assay with Blumeria graminis [14]; 15% in the assay with Blumeria graminis [15]; 60% with Podosphaera fuliginea [16]. The Activity in the assay with Podosphaera fuliginea [17] was found to be 95%; in the assay with Blumeria graminis [18], 85%; with Blumeria graminis [19] it was 78%; with Blumeria graminis [20], 100%; with Blumeria graminis [21], 89%; in the assay on Blumeria graminis [22], 52%. The values for the Activity in the assay with Blumeria graminis [23], with Blumeria graminis [24] and with Blumeria graminis [25] were 20%, 50% and 80%, respectively. Moreover, the concentration giving a half-maximal response (EC50) with Podosphaera fuliginea [3] stood at 1.2 µg/mL (≈ 2.97 µM); with Blumeria graminis [7], 1.7 µg/mL (≈ 4.21 µM); in the assay with Blumeria graminis [8], 1.7 µg/mL (≈ 4.21 µM); in the assay with Podosphaera fuliginea [12], 0.8 µg/mL (≈ 1.98 µM). Also, the EC90 worked out at 4.5 µg/mL (≈ 11.2 µM) in the assay on Podosphaera fuliginea [3], 5.9 µg/mL (≈ 14.6 µM) in the assay on Blumeria graminis [7], 7 µg/mL (≈ 17.4 µM) with Blumeria graminis [8] and 2.1 µg/mL (≈ 5.21 µM) in the assay on Podosphaera fuliginea [12].
In the case of `CNC(=O)/C(=N/OC)c1ccccc1Oc1ccccc1` [METOMINOSTROBIN], the Activity with Blumeria graminis [5] came to 100%; with Blumeria graminis [13], 65%; in the assay with Blumeria graminis [18], 95%; in the assay with Blumeria graminis [20], 100%; in the assay on Blumeria graminis [25], 85%.
